# Laboratory results taken from publication PMC8624133, “10th Trends in Medical Mycology Held on 8 to 11 October 2021, Aberdeen, Scotland, Organized by the European Confederation of Medical Mycology (ECMM)” (Journal of Fungi, 2021).
# Values joined by “and” are separate entries in the source; they are usually repeats but may differ in a detail not shown here. Identical values can stand only once. Residues, ends and D or L forms follow the SMILES beside them. *: point of attachment. βNA = c1ccc2cc(N*)ccc2c1
# Key:
# A. fumigatus conidia = test: Conidia killing by epithelial cells with sulfide donor; assay type: cell-based, Aspergillus fumigatus
# Source text: Materials & Methods: We deleted A. fumigatus genes to identify the enzymes primarily responsible for persulfidation as confirmed by fluorescence proteomic and microscopic analyses. We then used enzymatic assays, killing experiments and murine models to characterize the relevance of persulfidation for A. fumigatus virulence. We performed a genetic association study of the frequencies of a Single Nucleotide Polymorphism (SNP) in the human gene with the probability of suffering Invasive pulmonary aspergillosis (IPA) in hematopoietic stem cell transplant (HSCT) recipients. Next, we investigated the antifungal capacities of host cells using our engineered A549 cell line and alveolar macrophages and neutrophils derived from knock-out mice. Subsequenlty we investigated the interdependency of fungal and human persulfidation levels using Western-blot and fluorescence microscopy. Finally, we performed killing assays in the presence of a sulfide donor to potentiate host persulfidation.
# [1] = tested on: Scedosporium and Lomentospora species; test: Antifungal susceptibility tests; assay type: cell-based
# Procedure: (§1) Materials & Methods: Antifungal susceptibility tests and biofilm assay were performed to evaluate the activity of miltefosine against Scedosporium and Lomentospora species. Electron microscopy and fluorescent dyes, such as 2′,7′ –dichlorofluorescein diacetate and JC-1, were used to check the effects on cell integrity, oxidative stress and mitochondrial membrane potential, respectively. Miltefosine effects on fungal membrane were evaluated by fillipin staining, the susceptibility to membrane and cell wall stressors and the analysis of cell membrane permeability. Sinergystic assay was performed to check miltefosine interaction with current antifungal agents used in clinical settings.
# [2] = tested on: Scedosporium and Lomentospora species; test: Biofilm assay; assay type: cell-based
# Procedure: as §1
# [3] = tested on: drug transporters of M. circinelloides and R. microsporus; test: Rhodamine 6G efflux following glucose injection; assay type: cell-based, Mucor circinelloides, Rhizopus microsporus
# Procedure: (§2) Methods: The inhibitory effect of PaβN on transporters activity was assessed by measuring the efflux of their fluorescent substrate rhodamine 6G following glucose injection. The interaction of PaβN and posaconazole was assessed by the chequerboard dilution method in order to determine the fractional inhibitory concentration index (FICI).
# [4] = tested on: M. circinelloides and R. microsporus; test: Chequerboard dilution with posaconazole; assay type: cell-based, Mucor circinelloides, Rhizopus microsporus; conditions: PaβN + posaconazole; five ATCC or clinical isolates
# Procedure: as §2
# T. rubrum = test: Ergosterol content by HPLC; assay type: cell-based, Trichophyton rubrum; conditions: control 13.56 ± 0.35 mg%
# Procedure: (§3) Materials & Methods: The minimum inhibitory concentration (MIC) of honokiol was assessed by broth microdilution method against standard strains (Trichophyton rubrum ATCC 28188, Trichophyton mentagrophytes ATCC 9533), and clinical isolates (T. rubrum, T. ajelloi, Microsporum canis and M. gypseum). Evaluation of honokiol effect on ergosterol biosynthesis was assessed by high performance liquid chromatography. Checkerboard microtiter method was used to identify synergistic combinations of honokiol with terbinafine against Trichophyton rubrum ATCC 28188. The combinatorial effect was evaluated by calculating the fractional inhibitory concentration index (FICI).
# [5] = tested on: dermatophyte standard strains and clinical isolates; test: Broth microdilution MIC; assay type: cell-based, Trichophyton and Microsporum spp.; conditions: all tested strains
# Procedure: as §3
# [6] = tested on: Trichophyton rubrum ATCC 28188; test: Checkerboard microtiter method with terbinafine; assay type: cell-based; conditions: honokiol + terbinafine, additive interactions
# Procedure: as §3
# [7] = tested on: A. fumigatus veterinary isolates; test: EUCAST microdilution of veterinary isolates; assay type: cell-based, Aspergillus fumigatus
# Procedure: All have been confirmed as A. fumigatus by MALDI-TOF MS using the BCCM/IHEM database. The antifungal susceptibility was evaluated using the microdilution EUCAST method. Cyp51A gene sequencing has been performed on all resistant isolates.
# [8] = tested on: C. auris Isolate B and Isolate C; test: microbe, parasite or virus in culture; assay type: cell-based, Candida auris
# A. fumigatus complex = conditions: share of isolates, n = 59, EUCAST clinical breakpoints
# A. flavus complex = conditions: n = 6, EUCAST clinical breakpoints
# A. nidulans complex = conditions: all isolates, n = 2
# ISV blood levels, HPLC = assay type: in vivo, human; conditions: for samples with level <1 mg/L: ICU
# Procedure: Materials & Methods: ISV levels are routinely tested in our centre HPLC method. The lowest limit of quantification was set at 0.15 mg/L. ISV blood levels obtained between January 2017 and May 2021 were analysed and compared between those obtained from patients in ICU vs. others. Chi-square/Fisher’s exact test and Mann-Whitney test were used for categorical and continuous variables, respectively. Levels of ISV <1 mg/L were defined as low.
# McLDM-F5-CPR = test: microbe, parasite or virus in culture; assay type: cell-based, Saccharomyces cerevisiae AD2Δgal; conditions: Saccharomyces cerevisiae, read-out: mean MIC
# [9] = Triazole drug levels in ABPA patients with asthma; assay type: in vivo, human; conditions: 452 patients, Oct 2009 to March 2021
# Source text: Materials & Methods: This was a retrospective single-centre cohort study evaluating longitudinal outcomes in non-cystic fibrosis (CF) ABPA patients with underlying chronic lung disease (asthma), and description of treatment approaches. Statistical Analysis System (SAS) programming was used for data integration from multiple hospital electronic systems, for patient identification and data analysis. Criteria for inclusion were patients with a background of asthma, serum Total IgE >1000 IU/mL and a positive Aspergillus IgE, with or without a positive culture for A. fumigatus from a respiratory sample. Data collected included demographics, lung function severity, disease activity serological markers (Aspergillus IgE, Aspergillus IgG, Total IgE) and triazole levels. In this study the impact of fungal therapy on disease outcomes was assessed.
# [10] = tested on: azole-resistant A. fumigatus SS clinical strains; test: EUCAST E.DEF 9.3.2; assay type: cell-based; conditions: Aspergillus fumigatus
# Candida tropicalis = test: CLSI M27-A3/M27-S4 MIC and MFC; assay type: cell-based
# Procedure: (§4) Methods & Materials: To evaluate the antifungal effect of each combination of nystatin and morencidine-like peptide, the protocol presented in CLSI M27-A3 and CLSI M27-S4 was used and the minimum inhibitory concentration was determined.
# Candida albicans = test: CLSI M27-A3/M27-S4 MIC and MFC; assay type: cell-based
# Procedure: as §4
# Candida glabrata = test: CLSI M27-A3/M27-S4 MIC and MFC; assay type: cell-based
# Procedure: as §4
# C. albicans = test: Neutrophil control of hyphal growth (swarming); assay type: cell-based, Candida albicans; conditions: neutrophils of SOT and SCT recipients, ex vivo
# Procedure: Methods and Materials: Twenty-one SOT, 19 SCT and 23 healthy control patients (HC) were identified and consented at primary care/outpatient transplant clinics. Transplant recipients were enrolled at a time period two to four months post-transplant. Following consent and peripheral blood collection, neutrophils were freshly isolated and co-incubated with C. albicans and the percent remaining live yeast was measured using a viability dye compared to a standard control to determine fungal elimination by neutrophils. Growth inhibition of C. albicans was also quantified by neutrophil swarming to yeast spotted onto glass slides, assessed by live cell imaging with or without G-CSF. Effect of soluble factors on neutrophils function was determined by incubation of healthy neutrophils with SOT and SCT serum and measuring ability to control C. albicans.
# [11] = tested on: invasive fungal diseases (IFDs); conditions: 41 patients; ref published case reports, PubMed and Embase, 1990–2020; cited from earlier work
# Source text: Among the 41 patients with IFDs, were those with invasive candidiasis and invasive mould diseases, including those caused by Aspergillus spp., Mucorales, and Fusarium spp. Sixteen (39%) had baseline neutropenia and 27 (66%) were considered to be refractory to standard therapy prior to GM-CSF administration. Among the 41 patients with IFDs, complete responses were reported in 35 (85%) patients and partial response in 1 patient, with 5 patients having no or unclear response. || Previously published case reports on the use of GM-CSF for adjunctive treatment of IFDs are summarized in Table 2. […]
compound,measurement,setting,value
C1COCCN1.COc1ccc(P(=S)(S)N2CCOCC2)cc1 (centres unmarked) [GY4137],conidia killing capacity of epithelial cells,A. fumigatus conidia,enhanced
"CCCCCCCCCCCCCCCCOP(=O)([O-])OCC[N+](C)(C)C [Miltefosine, miltefosine]",inhibitory concentration,[1],2 to 4 µg/mL
same,biofilm formation,[2],reduced biofilm formation
"NC(N)=NCCC[C@H](NC(=O)[C@@H](N)Cc1ccccc1)C(=O)Nc1ccc2ccccc2c1 [PaβN, Phenylalanine-Arginine Beta-Naphthylamide] (H-Phe-Arg-βNA)",efflux of rhodamine 6G,[3],decrease the efflux of rhodamine 6G
same,FICI,[4],0.5 and 0.5 to 0.6
"C=CCc1ccc(O)c(-c2ccc(O)c(CC=C)c2)c1 [honokiol, Honokiol]",ergosterol content,T. rubrum,9.52 ± 0.43 mg%
same,MIC,[5],8 to 16 µg/mL
same,FICI,[6],0.53–0.75
C[C@@H](c1nc(-c2ccc(C#N)cc2)cs1)[C@](O)(Cn1cncn1)c1cc(F)ccc1F [isavuconazole],isolates in the area of technical uncertainty (ATU),[7],27%
same,resistance of isolates,[7],No resistance
same,change of MIC,[8],largely unchanged
same,reduction in MIC,[8]; Isolate C with ERG11 WT in place of K143R,2 fold
same,Resistance,A. fumigatus complex,5%
same,isolates resistant,A. flavus complex,17%
same,resistance of isolates,A. nidulans complex,resistant
same,median blood level,"ISV blood levels, HPLC; 265 samples, 63 patients, first two months",3.3 mg/L
same,blood level range,"ISV blood levels, HPLC; ICU patients",0 to 8480 ng/mL
same,median blood level,"ISV blood levels, HPLC; ICU patients",1.95 mg/L
same,samples with level <1 mg/L,"ISV blood levels, HPLC; during renal replacement therapy, 7/24",29.2%
same,samples with level <1 mg/L,"ISV blood levels, HPLC; not receiving RRT, 7/46",15.2%
same,blood level range,"ISV blood levels, HPLC; all samples",0 to 14520 ng/mL
same,blood level range,"ISV blood levels, HPLC; non-ICU patients",0 to 14520 ng/mL
same,median blood level,"ISV blood levels, HPLC; non-ICU patients",4.1 mg/L
same,MIC,McLDM-F5-CPR,4 µg/mL
same,median trough drug level,[9],3.29 mg/L
same,MIC,"[10]; strain from pleural fluid of an ICU patient, no mutations in cyp51A",1 µg/mL
same,MIC,"[10]; two strains from a cystic fibrosis patient, TR34/L98H",8 µg/mL
C[C@@H]1[C@H](O)[C@@H](C)/C=C/C=C/CC/C=C/C=C/C=C/C=C/C(O[C@H]2O[C@H](C)[C@@H](O)[C@H](N)[C@@H]2O)CC2O[C@](O)(CC(O)C(O)CCC(O)CC(O)CC(O)CC(=O)O[C@H]1C)CC(O)C2C(=O)O (some centres unmarked) [nystatin],MIC (maximum inhibitory effect),Candida tropicalis,0.625 µg/mL
same,MIC (maximum inhibitory effect),Candida albicans,1.25 µg/mL
same,MIC (maximum inhibitory effect),Candida glabrata,1.25 µg/mL
Granulocyte-macrophage colony stimulating factor [GM-CSF],neutrophil ability to control hyphal growth,C. albicans,partially restored
same,"complete responses, n (%)",[11],35 (85%)
